Measurements reported in patent US20130165520A1, “Hybrid Molecule Having Mixed Retinoic Acid Receptor Agonism and Histone Deacetylase Inhibitory Properties” (priority 2010, published 2013).

Legend:
NCI-H226 = test: cells; details: Homo sapiens, NCI-H226, 48 h
MDA-MB-468 = test: cells; details: Homo sapiens, MDA-MB-468, 48 h
purified human HDAC3 = purified human HDAC3 (Homo sapiens, UniProt O15379); test: Standard fluorescence HDAC assay; format: biochemical; details: purified human enzyme, read-out: IC50 against HDAC3
MCF7 = test: cells; details: Homo sapiens, MCF7, 48 h
RXF393 [1] = test: cells; details: Homo sapiens, RXF 393, 48 h
NCI-H23 = test: cells; details: Homo sapiens, NCI-H23, 48 h
PC-3 = PC-3 (Prostate); 48 h
SK-MEL-2 = test: cells; details: Homo sapiens, SK-MEL-2, 48 h
OVCAR-8 = details: 48 h
SF-539 [2] = details: SF-539 (CNS); 48 h
OVCAR-4 = details: 48 h
M14 = test: cells; details: Homo sapiens, M14, 48 h
U251 = test: cells; details: Homo sapiens, U-251, 48 h
CAKI-1 [3] = test: cells; details: Homo sapiens, CAKI-1, 48 h
LOX IMVI [4] = test: cells; details: Homo sapiens, 48 h
NCI-H322M = NCI-H322M (Non-Small cell lung cancer); 48 h
LOX IMVI [5] = details: LOX IMVI (Melanoma); 48 h
NCI-H522 = test: cells; details: Homo sapiens, NCI-H522, 48 h
786-0 = 786-0 (Renal); 48 h
A498 = A498 (Renal); 48 h
SK-MEL-28 = test: cells; details: Homo sapiens, SK-MEL-28, 48 h
A549/ATCC = test: cells; details: Homo sapiens, A549, 48 h
MOLT-4 = test: cells; details: Homo sapiens, MOLT-4, 48 h
SF-539 [6] = test: cells; details: Homo sapiens, SF-539, 48 h
TK-10 = TK-10 (Renal); 48 h
SNB-75 = SNB-75 (CNS); 48 h
NCI/ADR-RES [7] = test: cells; details: Homo sapiens, 48 h
[8] = tested on: RAR target genes in MCF-7 cell line; test: RT-qPCR analysis of RAR target genes; format: cell-based
Description: The agonist activity of 3 through its effects on RAR target genes was subsequently analyzed (FIG. 3).

DU-145 = test: cells; details: Homo sapiens, DU-145, 48 h
K-562 = K-562 (Leukemia); 48 h
CAKI-1 [9] = details: CAKI-1 (Renal); 48 h
UO-31 [10] = details: UO-31 (Renal); 48 h
BT-20 = test: Cell growth measurement; format: cell-based; details: BT-20 (ER-negative, HER2-negative, RA-insensitive)
COLO205 = COLO205 (Colon); 48 h
RXF393 [11] = details: RXF393 (Renal); 48 h
NCI/ADR-RES [12] = details: 48 h
UO-31 [13] = test: cells; details: Homo sapiens, UO-31, 48 h
HL-60(TB) = HL-60(TB) (Leukemia); 48 h

Chain of purified human HDAC3 (O15379 whole entry): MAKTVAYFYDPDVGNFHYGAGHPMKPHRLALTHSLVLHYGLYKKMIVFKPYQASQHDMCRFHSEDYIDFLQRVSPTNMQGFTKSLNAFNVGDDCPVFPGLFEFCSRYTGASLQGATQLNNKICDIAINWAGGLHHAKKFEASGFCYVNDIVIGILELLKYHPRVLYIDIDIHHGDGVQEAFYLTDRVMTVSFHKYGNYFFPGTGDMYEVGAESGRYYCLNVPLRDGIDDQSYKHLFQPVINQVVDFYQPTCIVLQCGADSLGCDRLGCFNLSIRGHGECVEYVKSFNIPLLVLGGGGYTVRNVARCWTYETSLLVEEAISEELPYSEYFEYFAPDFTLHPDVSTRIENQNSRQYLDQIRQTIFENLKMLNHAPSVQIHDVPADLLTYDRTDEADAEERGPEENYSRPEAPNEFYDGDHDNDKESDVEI
Chain of purified human HDAC3 (Q9Y618 395-489 partner limits assumed): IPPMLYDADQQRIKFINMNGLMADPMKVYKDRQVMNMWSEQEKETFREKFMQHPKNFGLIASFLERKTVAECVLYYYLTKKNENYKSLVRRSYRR

Question: Which results are given for `CC1(C)CCC(C)(C)c2cc(-c3ccc4cc(C(=O)NO)ccc4c3)ccc21` [hybrid 3]?
Answer: GI50 (NCI-H226): 1220 nM; CC50 (NCI-H226; read-out: LC50): 18800 nM; GI50 (MDA-MB-468): 1180 nM; CC50 (MDA-MB-468; read-out: LC50): 6390 nM; IC50 (purified human HDAC3): 5000 nM; GI50 (MCF7): 470 nM; CC50 (MCF7; read-out: LC50): 4660 nM; GI50 (RXF393 [1]): 1260 nM; CC50 (RXF393 [1]; read-out: LC50): 6270 nM; GI50 (NCI-H23): 996 nM; CC50 (NCI-H23; read-out: LC50): 5900 nM; TGI (PC-3): 4250 nM; GI50 (SK-MEL-2): 2420 nM; CC50 (SK-MEL-2; read-out: LC50): 33600 nM; TGI (OVCAR-8): 1770 nM; TGI (SF-539 [2]): 7260 nM; TGI (OVCAR-4): 5820 nM; GI50 (M14): 708 nM; CC50 (M14; read-out: LC50): 7430 nM; GI50 (U251): 437 nM; CC50 (U251; read-out: LC50): 4800 nM; GI50 (CAKI-1 [3]): 302 nM; CC50 (CAKI-1 [3]; read-out: LC50): 4310 nM; GI50 (LOX IMVI [4]): 372 nM; CC50 (LOX IMVI [4]; read-out: LC50): 4190 nM; TGI (NCI-H322M): 3500 nM; TGI (LOX IMVI [5]): 1360 nM; GI50 (NCI-H522): 1620 nM; CC50 (NCI-H522; read-out: LC50): 7980 nM; TGI (786-0): 2370 nM; TGI (A498): 3800 nM; GI50 (SK-MEL-28): 1810 nM; CC50 (SK-MEL-28; read-out: LC50): 21700 nM; GI50 (A549/ATCC): 473 nM; CC50 (A549/ATCC; read-out: LC50): 7800 nM; GI50 (MOLT-4): 371 nM; CC50 (MOLT-4; read-out: LC50): 7800 nM; GI50 (SF-539 [6]): 699 nM; CC50 (SF-539 [6]; read-out: LC50): 30900 nM; TGI (TK-10): 4970 nM; TGI (SNB-75): 6100 nM; GI50 (NCI/ADR-RES [7]): 502 nM; CC50 (NCI/ADR-RES [7]; read-out: LC50): 5340 nM; induction of RAR target genes (RT-qPCR) [8]: clear induction of RARB2 and DHRS3; GI50 (DU-145): 622 nM; CC50 (DU-145; read-out: LC50): 4680 nM; TGI (K-562): 1460 nM; TGI (CAKI-1 [9]): 1030 nM; TGI (UO-31 [10]): 1610 nM; effect on cell growth (BT-20): active; TGI (COLO205): 2330 nM; TGI (RXF393 [11]): 2820 nM; TGI (NCI/ADR-RES [12]): 1760 nM; GI50 (UO-31 [13]): 404 nM; CC50 (UO-31 [13]; read-out: LC50): 4530 nM; TGI (HL-60(TB)): 1520 nM
